Laboratory results published in patent US12370192B2, “Azole-fused pyridazin-3(2H)-one derivatives” (TAKEDA PHARMACEUTICAL COMPANY LIMITED, priority 2019, dated 2025).

Columns and labels:
[1] = biological target: T1, human GPR139 receptor (Homo sapiens, UniProt Q6DWJ6); experiment: GPR139 Competition Binding (membrane-based, tritium-labeled ligand); details: T-REx-CHO membranes with human GPR139; 6.5 nM tritium-labeled ligand; 11-point curve, 30 μM maximum concentration; read-out: GPR139 Binding Affinity (pKi) (converted)
T1 construct: expressed in transfected cells; host or cells: T-REx-CHO (Thermo Fisher Scientific), doxycycline-induced
T1 sequence (Q6DWJ6 1-353): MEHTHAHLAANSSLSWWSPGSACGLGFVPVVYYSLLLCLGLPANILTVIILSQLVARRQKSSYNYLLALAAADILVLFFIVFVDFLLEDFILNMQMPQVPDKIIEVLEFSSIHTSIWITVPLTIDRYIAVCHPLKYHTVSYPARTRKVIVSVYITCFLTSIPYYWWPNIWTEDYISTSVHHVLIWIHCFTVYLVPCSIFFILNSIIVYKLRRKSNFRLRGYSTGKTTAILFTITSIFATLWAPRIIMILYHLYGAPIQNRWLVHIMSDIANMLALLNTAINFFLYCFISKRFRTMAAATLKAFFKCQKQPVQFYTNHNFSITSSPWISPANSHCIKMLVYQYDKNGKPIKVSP
Procedure: OPR139 Competition Binding
This membrane-based assay measures the ability of compounds to competitively bind GPR139 in stably transfected TREx™-CHO membranes. To prepare the membranes, T-REx™-CHO (Thermo Fisher Scientific®) cells are stably expressed with human GPR139 receptor, whose expression is controlled by a tetracycline-inducible element. The cells are cultured in medium containing F-12K nutrient mixture-Kaighn's modification, 10% tetracycline-free FBS, Blasticidin S HCl (10 μg/mL) and Hygromycin B (200 μg/mL). GPR139 receptor expression is induced for 18 hours with 2 μg/mL doxycycline (Sigma D9891) in growth media. After addition of doxycycline, cells are harvested in PBS and pelleted by centrifugation for 5 minutes at 200×G. Liquid is aspirated off and cells are resuspended in ice cold lysis buffer (20 mM HEPES/5 mM EDTA pH 7.4/1× Roche® protease inhibitor). Samples are vortexed until homogenous and then placed on ice and homogenized using a Dounce homogenizer at 50% power (3 cycles, 10 strokes per cycle). Lysate is centrifuged at 4° C. for 10 minutes in a tabletop Sorvall® centrifuge at 2000×G. The supernatant is recovered and centrifuged in a Sorvall® ultracentrifuge at 35,000 rpm for 30 minutes at 4° C. The supernatant is discarded, and the remaining pellet resuspended in lysis buffer (20 mM HEPES/0.1 mM EGTA/Roche® protease inhibitor). Membrane protein concentration is determined using Thermo Fisher® BCA quantification kit and is aliquoted into microtubes. Tubes are snap frozen in liquid nitrogen and stored at −80° C. Prior to use, the membranes are removed from cold storage, thawed to room temperature, vortexed until homogenous and diluted in assay buffer (20 mM HEPES pH 7.3, 5 mM MgCl2, 1 mM CaCl2), 1× Thermo Scientific® Halt™ protease inhibitor (78429)).
The assay is run in 96-well, polypropylene, v-bottom plates (Greiner Bio-One® 651201). Test compound in DMSO is added to the wells of each plate (11-point dose response curve, 30 μM maximum concentration, 3-fold serial dilution). A fixed amount of tritium-labeled ligand, (S)-2-(2,3-dimethyl-7-oxothieno[2,3-d]pyridazin-6(7H)-yl)-N-(1-(4-methoxyphenyl-2-t)propan-2-yl)acetamide (Quotient Bioresearch) in assay buffer (6.5 nM assay concentration) is added to each well of the assay plate, which is then agitated on a plate shaker for 30 seconds. Next, a fixed amount of membranes in assay buffer (2 μg membranes) is added to each well of the assay plate, which is then spun for 30 seconds at 300 rpm in a tabletop Eppendorf centrifuge, and then incubated at room temperature for 20 minutes. Using a Tomtec harvester, the contents of the assay plate are transferred to Filtermat A (PerkinElmer® No. 1450-421) which prior to use is pre-soaked in 0.5% PEI (Sigma P3143) for 3 hours and dried at room temperature overnight. Following transfer, the Filtermat is washed 5 times with cold wash buffer (20 mM HEPES pH 7.3, 100 mM NaCl). The Filtermat is dried using a microwave oven and placed in a sample bag (PerkinElmer® No. 1450-432) with a scintillator sheet (PerkinElmer® No. 1450-411). The scintillator sheet is melted to the Filtermat using a heat block set to 65° C., placed in a MicroBeta® cartridge and read using a MicroBeta® scintillation counter. Binding curves are generated with a four-parameter logistic equation using GraphPad Prism® 6 and the inhibition constant Ki is reported as pKi.

[2] = biological target: T1, human GPR139 receptor; experiment: Measurement of GPR139 Activation Via Calcium Signaling (FLIPR, T-REx-CHO cells); type: cell-based; details: T-REx-CHO cells stably expressing human GPR139, 11-point dose response, 10 μM maximum concentration, read-out: GPR139 Potency (pEC50) (converted)
Procedure: Measurement of GPR139 Activation Via Calcium Signaling
This cell-based assay measures the ability of compounds to activate GPR139 in stably transfected T-REx™-CHO cells. T-REx™-CHO cells (Thermo Fisher Scientific®) are stably expressed with human GPR139 receptor, whose expression is controlled by a tetracycline-inducible element. The cells are cultured in medium containing F-12K nutrient mixture-Kaighn's modification, TripleLE™ Express (1×)-phenol red, Dulbecco's phosphate-buffered saline (1×), 10% tetracycline-free FBS, Blasticidin S HCl (10 μg/mL) and Hygromycin B (200 μg/mL). The cells are introduced into the wells of a 384-well black clear bottom plate (Costar®) at 10,000 cells/well. GPR139 receptor expression is induced with 2 μg/mL doxycycline (Sigma D9891). The plate is allowed to stand at room temperature for 10-30 minutes and then incubated at 37° C. and 5% CO2 for 17 hours prior to assay.
Culture media is removed from cells and 45 μL of 1× calcium dye (2.5 mM) is added to each well and incubated at 37° C. and 5% CO2 for 40 minutes. The plate is removed from the incubator and allowed to stand at RT for 20 minutes without a plate cover prior to measurement of calcium signaling. The calcium dye is prepared by adding 10 mL of assay buffer (Hank's Balanced Salt Solution (1×), 1 mM HEPES at pH 7.4) to one vial of calcium dye (FLIPR® Calcium 5 Assay Kit; Molecular Devices) at room temperature, vortexing the mixture until homogenous, and transferring the dye to a 250 mL flask using 10 mL of assay, buffer to rinse the vial. The dye is subsequently transferred to a conical flask, which is filled to the 200 mL mark with assay buffer, and 1 mL of […] probenecid solution (142.68 mg/mL in 1M NaOH aq) is added.
Example compounds suspended in DMSO are received from compound management in microtiter plates (0.25 μL/well) and are diluted in assay buffer (25 μL). Following incubation of the cell plate, the Example compounds are added to the cells (11-point dose response, 10 μM maximum concentration) using a FLIPR® Tetra system (Molecular Devices) and fluorescence is measured continuously for 1 minute. EC50 curves are generated with a four-parameter logistic equation using GraphPad Prism® 6, and activation of GPR139 for each example compound is reported as pEC50.

Structure (SMILES): Cc1ccc([C@H](C)NC(=O)Cn2nc(C)c3cnn(-c4ccccc4)c3c2=O)cc1 [Example 1]
- Ki [1]: 0.055 µM
- EC50 [2]: 0.0513 µM

Structure (SMILES): COc1ccc([C@H](C)NC(=O)Cn2nc(C)c3cnn(-c4ccccc4)c3c2=O)cc1 [Example 2, (S)—N-(1-(4-methoxyphenyl)ethyl)-2-(4-methyl-7-oxo-1-phenyl-1,7-dihydro-6H-pyrazolo[3,4-d]pyridazin-6-yl)acetamide]
- Ki [1]: 0.871 µM
- EC50 [2]: 0.0562 µM

Structure (SMILES): Cc1ccc([C@H](C)NC(=O)Cn2nc(C(C)C)c3cnn(-c4ccccc4)c3c2=O)cc1 [Example 3, (S)-2-(4-isopropyl-7-oxo-1-phenyl-1,7-dihydro-6H-pyrazolo[3,4-d]pyridazin-6-yl)-N-(1-(p-tolyl)ethyl)acetamide]
- Ki [1]: 0.0724 µM
- EC50 [2]: ≥ 10 µM

Structure (SMILES): CC(C)c1nn(CC(=O)N[C@@H](C)c2ccc(C(F)(F)F)cc2)c(=O)c2c1cnn2-c1ccccc1 [Example 4, (S)-2-(4-isopropyl-7-oxo-1-phenyl-1,7-dihydro-6H-pyrazolo[3,4-d]pyridazin-6-yl)-N-(1-(4-(trifluoromethyl)phenyl)ethyl)acetamide]
- Ki [1]: 0.0912 µM
- EC50 [2]: ≥ 10 µM

Structure (SMILES): Cc1nn(CC(=O)N[C@@H](C)c2ccc(OC(F)(F)F)cc2)c(=O)c2c1cnn2-c1ccccc1 [Example 5, (S)-2-(4-methyl-7-oxo-1-phenyl-1,7-dihydro-6H-pyrazolo[3,4-d]pyridazin-6-yl)-N-(1-(4-(trifluoromethoxy)phenyl)ethyl)acetamide]
- Ki [1]: 0.0933 µM
- EC50 [2]: 0.224 µM

Structure (SMILES): Cc1ccc([C@H](C)NC(=O)Cn2nc(C)c3cnn(-c4ccccc4)c3c2=O)c(F)c1 [Example 6, (S)—N-(1-(2-fluoro-4-methylphenyl)ethyl)-2-(4-methyl-7-oxo-1-phenyl-1,7-dihydro-6H-pyrazolo[3,4-d]pyridazin-6-yl)acetamide]
- Ki [1]: 0.0234 µM
- EC50 [2]: ≥ 10 µM

Structure (SMILES): CC(C)c1nn(CC(=O)N[C@@H](C)c2ccc(OC(F)(F)F)cc2)c(=O)c2c1cnn2-c1ccccc1 [Example 7, (S)-2-(4-isopropyl-7-oxo-1-phenyl-1,7-dihydro-6H-pyrazolo[3,4-d]pyridazin-6-yl)-N-(1-(4-(trifluoromethoxy)phenyl)ethyl)acetamide]
- Ki [1]: 0.162 µM
- EC50 [2]: ≥ 10 µM

Structure (SMILES): Cc1ccc([C@H](C)NC(=O)Cn2nc(C(C)C)c3cnn(-c4ccccc4)c3c2=O)c(F)c1 [Example 8, (S)—N-(1-(2-fluoro-4-methylphenyl)ethyl)-2-(4-isopropyl-7-oxo-1-phenyl-1,7-dihydro-6H-pyrazolo[3,4-d]pyridazin-6-yl)acetamide]
- Ki [1]: 0.0275 µM
- EC50 [2]: ≥ 10 µM

Structure (SMILES): COc1ccc([C@H](C)NC(=O)Cn2nc(C)c3c(c(C(C)C)nn3C)c2=O)cc1F [Example 10, (S)—N-(1-(3-fluoro-4-methoxyphenyl)ethyl)-2-(3-isopropyl-1,7-dimethyl-4-oxo-1H-pyrazolo[3,4-d]pyridazin-5(4H)-yl)acetamide]
- Ki [1]: 0.12 µM
- EC50 [2]: 0.0794 µM

Structure (SMILES): Cc1ccc([C@H](C)NC(=O)Cn2nc(C(C)C)c3cnn(C(C)(C)C)c3c2=O)cc1 [Example 11, (S)-2-(1-(tert-butyl)-4-isopropyl-7-oxo-1,7-dihydro-6H-pyrazolo[3,4-d]pyridazin-6-yl)-N-(1-(p-tolyl)ethyl)acetamide]
- Ki [1]: 0.107 µM
- EC50 [2]: 2.75 µM

Structure (SMILES): CC(C)c1nn(CC(=O)N[C@@H](C)c2ccc(C(F)(F)F)cc2)c(=O)c2c1cnn2C(C)(C)C [Example 12, (S)-2-(1-(tert-butyl)-4-isopropyl-7-oxo-1,7-dihydro-6/1-pyrazolo[3,4-d]pyridazin-6-yl)-N-(1-(4-(trifluoromethyl)phenyl)ethyl)acetamide]
- Ki [1]: 0.0339 µM
- EC50 [2]: 2.14 µM

Structure (SMILES): Cc1ccc([C@H](C)NC(=O)Cn2nc(C)c3cnn(C(C)(C)C)c3c2=O)cc1 [Example 13, (S)-2-(1-(tert-butyl)-4-methyl-7-oxo-1,7-dihydro-6H-pyrazolo[3,4-d]pyridazin-6-yl)-N-(1-(p-tolyl)ethyl)acetamide]
- Ki [1]: 0.0209 µM
- EC50 [2]: 0.102 µM

Structure (SMILES): Cc1nn(CC(=O)N[C@@H](C)c2ccc(C(F)(F)F)cc2)c(=O)c2c1cnn2C(C)(C)C [Example 14, (S)-2-(1-(tert-butyl)-4-methyl-7-oxo-1,7-dihydro-6H-pyrazolo[3,4-d]pyridazin-6-yl)-N-(1-(4-(trifluoromethyl)phenyl)ethyl)acetamide]
- Ki [1]: 0.0372 µM
- EC50 [2]: 0.617 µM

Structure (SMILES): Cc1nn(CC(=O)N[C@@H](C)c2ccc(OC(F)(F)F)cc2)c(=O)c2c1cnn2C(C)(C)C [Example 15, (S)-2-(1-(tert-butyl)-4-methyl-7-oxo-1,7-dihydro-6H-pyrazolo[3,4-d]pyridazin-6-yl)-N-(1-(4-(trifluoromethoxy)phenyl)ethyl)acetamide]
- Ki [1]: 0.0575 µM
- EC50 [2]: 0.617 µM

Structure (SMILES): C[C@H](NC(=O)Cn1ncc2ccn(C)c2c1=O)c1ccc(C(F)(F)F)cc1 [Example 164, (S)-2-(1-methyl-7-oxo-1,7-dihydro-6H-pyrrolo[2,3-d]pyridazin-6-yl)-N-(1-(4-(trifluoromethyl)phenyl)ethyl)acetamide]
- Ki [1]: 0.2 µM

Structure (SMILES): Cc1nn(C2CC2)c2cnn(CC(=O)N[C@H](c3ccccc3)C3CC3)c(=O)c12 [Example 173, (S)—N-(cyclopropyl(phenyl)methyl)-2-(1-cyclopropyl-3-methyl-4-oxo-1,4-dihydro-5H-pyrazolo[3,4-d]pyridazin-5-yl)acetamide]
- Ki [1]: 30.2 µM
